This is an account of results in patent US8779002B2, “Methods for treating a variety of diseases and conditions, and compounds useful therefor” (Salk Institute for Biological Studies, priority 2007, dated 2014).

Structures are written as SMILES.

For one assay, the system named is MC-65 cells. As to the kind of experiment: MC65 intracellular amyloid toxicity assay. The following applies: Intracellular amyloid toxicity; read-out: MC65 EC50. The format is cell-based. On the procedure: FIG. 4A illustrates the viability of MC-65 cells upon exposure to the indicated concentrations of compounds, and the degree to which synthesis of the C-terminal fragment of APP is induced by the removal of tetracycline. Cell death was determined 5 days later by the MTT assay and confirmed visually. The data are plotted as percent viable, relative to controls of drug plus un-induced cells.

For a further assay, the system named is HT22 cells. Kind of assay: HT22 oxidative glutamate toxicity (oxytosis) assay. Type of assay: cell-based, mouse. The note with it: Oxidative glutamate toxicity (oxytosis); read-out: HT-22 EC50. How it is done: FIG. 1D illustrates the results of an oxidative stress assay. HT22 cells were treated with 5 mM glutamate and different concentrations of two versions of curcumin derivatives. Cell viability was measured 24 hr later by the MTT assay (J. B. Davis and P. Maher, Protein kinase C activation inhibits glutamate-induced cytotoxicity in a neuronal cell line. Brain Res. 652 (1994) 169-173). Legend for FIG. 1A, FIG. 1B and FIG. 1D: x-x, Cmpd CNB-001, o-o, Cmpd J147.
Similar toxicity assays as described above are also conducted with invention compounds using HT22 cells in an assay for oxidative stress. After exposure with 1 mM, 2 mM, 2.5 mM, or 5 mM glutamate, cell viability is determined with the MTT assay.
HT22 hippocampal neurons are treated with 5 mM glutamate and increasing concentrations of invention compounds. Cell viability is measured 24 hr later by the MTT assay (Davis and Maher, Brain Res. 652:169-173 (1994)).

Another assay deals with primary cortical neurons. As to the kind of experiment: Trophic factor withdrawal (TFW) assay. The following applies: Trophic factor withdrawal assay; read-out: TFW EC50. The format is cell-based, rat. On the procedure: FIG. 1A illustrates the results of a trophic factor withdrawal assay. Primary cortical neurons are prepared from 18-day-old rat embryos, and cultured at low cell density 1×10^6/35 mm dish, in serum containing medium, with different compounds Viability is then assayed 2 days later using a fluorescent live-dead assay (Molecular Probes).
Primary cortical neurons can be prepared from 18-day-old embryos of Sprague-Dawley rats as described (Liu & Schubert, J. Neurochem., 1997, 69:2285-2293 and J. Neurochem., 1998, 71:2322-2329). Briefly, the cerebral cortex is dissected out under an anatomical microscope and is freed of meninges and blood vessels. The cortex is cut into small pieces and is then dissociated by trypsin digestion and passed through a pipette tip. Dissociated neurons are suspended in various media and plated on polylysine-coated 35 mm tissue culture dishes (e.g., 1×10^6 cells/dish). Several different culture conditions can be used as known in the art. Invention compounds can be added to cell culture dishes. Cell survival can be measured 1-2 days after compound administration.
A serum-containing medium can be used which includes a minimal essential medium (Sigma) containing 30 mM glucose, 2 mM glutamine, 1 mM pyruvate, penicillin (100 U/ml), streptomycin (100 μg/ml), and 10% fetal calf serum. At a plating density of 1×10^6 cells/dish, most neurons die after one week of culture in this medium. If plated at a density of 2×10^6 cells/dish, then most neurons survive. The cell density-dependent neuronal survival in this system is most likely dependent on the neurotrophic factors secreted by the neurons, not by the glia. The results are the same when glial proliferation is inhibited by cytosine arabinoside.
The structure-activity relationships of compounds according to the present invention can be determined by measuring trophic factor withdrawal in […] primary cortical neurons. As shown in FIG. 1A-FIG. 1D, compounds are added to low density primary cultures of E18 rat cortical neurons at the time of plating, and cell survival is determined two days later by a variety of methods.

A further assay relates to Wistar rats. As to the kind of experiment: Novel object recognition task in rats. The format is in vivo, rat. How it is done: FIG. 6 illustrates the effect of galantamine, compounds CNB-001, J147, SK186 and SKI 87 on object recognition task in Wistar rats. The data represent mean±SEM. *p<0.05 compared with the vehicle control.
This model is based on the greater spontaneous exploration of a novel object, compared with a familiar object, shown by rodents (see Ennaceur and Delacour in Behav. Brain Res. 31:47 (1988)). Male Wister rats are assessed for cognitive ability in a test apparatus comprising an open-field arena placed in a sound-attenuated room under dimmed lighting. Images of the open-field are captured by digital camera, and viewed on a monitor in an adjoining room. Each rat is subjected to the procedure separately and care is taken to remove any olfactory/taste cues by cleaning the arena and test objects with alcohol between trials and rats.
Adult male Wistar rats were employed in all rat studies. Animals were placed in the experimental rooms at postnatal day 80 and assigned unique identification numbers (tail marked). Pairs were housed in polycarbonate cages with filter tops and acclimated for 3 days prior to commencing any studies. Animals were maintained in a 12 hour light/dark cycle with room temperature maintained at 22±2° C. with a relative humidity maintained approximately 50%. Food and water were provided ad libitum.
All animals were examined, handled, and weighed for a further two days prior to initiation of the study to assure adequate health and suitability and to minimize non-specific stress associated with manipulation. Each animal was randomly assigned across the treatment groups and balanced by cage numbers. The novel object recognition experiment was performed during the animal's light cycle phase. Drug treatments were balanced across days and animals were only used once
The following compounds were used for this study—Reference compound (Galantamine; 3 mg/kg) was dissolved in 0.9% saline and administered i.p. 1 hour pre-test at a dose volume of 1 ml/kg, and all test compounds were handled in solution, and were kept at −80° C. until use. All compounds were administered orally 60 min prior to training at a volume of 1 ml/kg body weight.
Following a 5-minute habituation period, each rat was placed into the test arena in the presence of two identical objects (plastic shapes). Each rat was placed facing the same direction at the same position in the arena, and the time spent actively exploring the objects during a 5-minute test period (T1) was recorded. The rat was returned to its home cage between tests. After 24 hours, each rat was again placed in the test arena for 5 minutes (T2) in the presence of one of the familiar objects and a novel object, and the time spent exploring both objects was again recorded. The presentation order and position of the objects (left/right) was randomized between rats to prevent bias from order or place preference. A preference index for each object, the ratio of the time spent exploring either the familiar object or the novel object over the total time spent exploring both objects (during retention session T2) was used to measure cognitive function.
Data were analyzed by a one-way analysis of variance (ANOVA) followed by post-hoc comparisons with Fisher Tests when appropriate. An effect was considered significant if p<0.05. Data in the following tables are presented as the mean and standard error to the mean.

Usually EC50 stands for the concentration giving half of the maximal effect.

On to `COc1cccc(C=NN(C(=O)C(F)(F)F)c2ccc(C)cc2)c1` [HF 42FP], for which the EC50 with MC-65 cells stood at 50 nM; in the assay on HT22 cells, 80 nM; with primary cortical neurons, 700 nM.

As to `Cc1ccc(N(N=Cc2ccccc2)C(=O)C(F)(F)F)c(C)c1` [HF 39FP], the EC50 with MC-65 cells is 220 nM; in the assay on HT22 cells, 37 nM; in the assay with primary cortical neurons, above 1000 nM.

As for `Cc1ccccc1N(N=Cc1ccccc1)C(=O)C(F)(F)F` [HF 43FP], the results for the EC50 with MC-65 cells, with HT22 cells and in the assay on primary cortical neurons were 400 nM, 50 nM and 800 nM, respectively.

On to `COc1cccc(C=NN(C(C)=O)c2ccc(C)cc2C)c1` [Compound J147A], for which the values for the EC50 with MC-65 cells, with HT22 cells and in the assay on primary cortical neurons were 280 nM, 70 nM and above 1000 nM, respectively.

For `COc1ccc(C=NN(C(=O)C(F)(F)F)c2ccc(C)cc2C)cc1` [Sk35], the EC50 was found to be 10 nM in the assay on MC-65 cells, 4 nM in the assay on HT22 cells and 35 nM in the assay on primary cortical neurons.

For `O=C(N(N=Cc1ccccc1)c1ccccc1)C(F)(F)F` [HF 38FP], the EC50 with MC-65 cells was determined as 80 nM; in the assay with HT22 cells, 33 nM; with primary cortical neurons, 70 nM.

Turning to `COc1cccc(C=NN(C(=O)C(F)(F)F)c2ccccc2)c1` [HF 40FP], the figures for the EC50 with MC-65 cells, in the assay on HT22 cells and in the assay with primary cortical neurons were 250 nM, 75 nM and 100 nM, respectively.

As to `COc1cccc(C=NN(C(=O)C(F)(F)F)c2ccccc2C)c1` [HF 43 FO], the figures for the EC50 in the assay with MC-65 cells, with HT22 cells and with primary cortical neurons were 130 nM, 68 nM and above 1000 nM, respectively.

For the molecule `Cc1ccc(N(N=Cc2ccccc2)C(=O)C(F)(F)F)cc1` [HF 41FP], the EC50 in the assay on MC-65 cells was above 1000 nM; in the assay on HT22 cells, 33 nM; in the assay on primary cortical neurons, above 1000 nM.

For the molecule `COc1ccc2c3c1O[C@H]1C[C@@H](O)C=C[C@@]31CCN(C)C2` [Galantamine, reference compound], in the assay on Wistar rats (3 mg/kg i.p. 1 hour pre-test, Wistar rats, n=8), the “Recognition index, Mean” value amounted to 74.037. Further, the “Fisher's PLSD for Recognition index, Mean Diff. (*vehicle, treatment)” value in the assay on Wistar rats (vehicle versus 3 mg/kg i.p.) was −22.114.

As for `Cc1ccc(N(N=Cc2ccc(C(=O)O)cc2)C(=O)C(F)(F)F)c(C)c1` [Sk36], the EC50 with MC-65 cells was 300 nM; in the assay with HT22 cells, 100 nM; in the assay with primary cortical neurons, 300 nM.
